Experiment: xn = mol fraction of the nth substance listed
Conditions: 101 kPa

CC[n+]1ccn(C)c1.F[B-](F)(F)F + O=C1CCCCC1
speed of sound [m/s]
Conditions	293.15 K	298.15 K	303.15 K	308.15 K
x2 = 0.0789	1623.5	1613.7	1602.6	–
x2 = 0.1407	1616.1	1607.6	1595.3	1581
x2 = 0.1861	1609.9	–	1587.8	1573.9
x2 = 0.2271	1603	1593.7	1580.5	1565.6
x2 = 0.2765	–	–	1570.4	–
x2 = 0.3069	1588.5	–	1563.6	–
x2 = 0.3898	1571.3	1560.2	1543.8	1527.9
x2 = 0.4269	1562.9	–	1534.4	1518.2
x2 = 0.489	1548.9	–	1518.4	1501.3
x2 = 0.5007	1545.9	1532.4	1515	1498.2
x2 = 0.5432	1535.6	–	1503.3	1486.5
x2 = 0.6302	1514.1	1499.3	1480.2	1462.4
x2 = 0.6848	–	1484.9	1465.9	1447.8
x2 = 0.7559	1483.3	1467.5	–	1428.7
x2 = 0.779	1477.4	1461.4	1441.7	1423.1
x2 = 0.8235	1467.2	1450.9	1431.5	1412.3
x2 = 0.8675	1457	1440.8	–	–
x2 = 0.9001	1450.6	1433.9	1414.6	1395

O=C1CCCC1 + CC[n+]1ccn(C)c1.F[B-](F)(F)F
speed of sound [m/s]
Conditions	293.15 K	298.15 K	303.15 K	308.15 K
x1 = 0.0877	1643.2	1628.4	1615.4	–
x1 = 0.1164	1644.4	1629.3	1615.2	1599.6
x1 = 0.1767	1642	1625.9	1611.6	1595.8
x1 = 0.2302	1633.9	1619.2	–	1588.2
x1 = 0.2879	1622.5	1606.5	–	1576.9
x1 = 0.3434	–	1592.4	1577.1	1562.1
x1 = 0.3887	1593.6	1578.2	–	1548
x1 = 0.478	1562.8	–	1530.1	–
x1 = 0.5114	–	1533.8	1517.1	1502.2
x1 = 0.5878	1522.6	1504.6	1486.7	1470.6
x1 = 0.6115	1513.9	1495.8	1477.3	1460.7
x1 = 0.6411	1503.2	1485	1465.7	1448.7
x1 = 0.6834	–	1469.2	1449.6	1431.7
x1 = 0.7649	1462.6	1441.6	1421.2	1402.3
x1 = 0.7867	1456.3	1435.4	1414.3	1394.6
x1 = 0.8157	–	1427	1405.9	1385.8
x1 = 0.8755	–	1412.3	–	1370.4
x1 = 0.9061	1427.6	1406	1384.4	1363.9
